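Following 48 hours of exposure in 96-well plates, responses at five concentrations were used to interpolate endpoints linearly. Definition used: TGI = concentration required for complete inhibition of growth.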
Assays:
Test in all cases: growth of human tumour cells (NCI), 48 h
MDA-MB-435 = tested on: MDA-MB-435
SN12C renal = tested on: SN12C renal
DU-145 prostate = tested on: DU-145 prostate
SW-620 colon = tested on: SW-620 colon
MDA-N = tested on: MDA-N
SF-268 CNS = tested on: SF-268 CNS
PC-3 prostate = tested on: PC-3 prostate
MOLT-4 leukemia = tested on: MOLT-4 leukemia
SK-MEL-5 melanoma = tested on: SK-MEL-5 melanoma
CCRF-CEM leukemia = tested on: CCRF-CEM leukemia
CAKI-1 renal = tested on: CAKI-1 renal
RXF 393 renal = tested on: RXF 393 renal
HCC-2998 colon = tested on: HCC-2998 colon
OVCAR-8 ovarian = tested on: OVCAR-8 ovarian
BT-549 breast = tested on: BT-549 breast
MALME-3M melanoma = tested on: MALME-3M melanoma
SNB-19 CNS = tested on: SNB-19 CNS
NCI-H226 lung = tested on: NCI-H226 lung
T-47D breast = tested on: T-47D breast
HOP-92 NSCLC = tested on: HOP-92 NSCLC
MCF7 breast = tested on: MCF7 breast
U251 CNS = tested on: U251 CNS
SK-MEL-28 melanoma = tested on: SK-MEL-28 melanoma
UACC-257 melanoma = tested on: UACC-257 melanoma
SF-539 CNS = tested on: SF-539 CNS
TK-10 renal = tested on: TK-10 renal
OVCAR-5 ovarian = tested on: OVCAR-5 ovarian
SNB-75 CNS = tested on: SNB-75 CNS
HOP-62 NSCLC = tested on: HOP-62 NSCLC
SK-OV-3 ovarian = tested on: SK-OV-3 ovarian
MDA-MB-231 breast = tested on: MDA-MB-231 breast
A498 renal = tested on: A498 renal
K-562 leukemia = tested on: K-562 leukemia
IGROV1 ovarian = tested on: IGROV1 ovarian
HT29 colon = tested on: HT29 colon
ACHN renal = tested on: ACHN renal
NCI-H522 lung = tested on: NCI-H522 lung
COLO 205 colon = tested on: COLO 205 colon
HCT-116 colon = tested on: HCT-116 colon
NCI/ADR-RES ovarian = tested on: NCI/ADR-RES ovarian
786-0 renal = tested on: 786-0 renal
OVCAR-4 ovarian = tested on: OVCAR-4 ovarian
SR leukemia = tested on: SR leukemia
SK-MEL-2 melanoma = tested on: SK-MEL-2 melanoma
OVCAR-3 ovarian = tested on: OVCAR-3 ovarian
UACC-62 melanoma = tested on: UACC-62 melanoma
NCI-H23 lung = tested on: NCI-H23 lung
NCI-H460 lung = tested on: NCI-H460 lung
SF-295 CNS = tested on: SF-295 CNS
LOX IMVI melanoma = tested on: LOX IMVI melanoma
KM12 colon = tested on: KM12 colon
A549 NSCLC = tested on: A549 NSCLC
UO-31 renal = tested on: UO-31 renal
HCT-15 colon = tested on: HCT-15 colon
EKVX NSCLC = tested on: EKVX NSCLC
HS 578T breast = tested on: HS 578T breast

**Q.** Which TGI (MDA-MB-435) does the source give for `CC1OC(OC2C(OC3CCC4(C)C(CCC5(C)C4CC=C4C6CC(C)(C)CCC6(C(=O)O)CCC45C)C3(C)CO)OCC(O)C2O)C(O)C(O)C1O` (stereo unspecified) here?
**A.** 43 µM

**Q.** And the TGI (SN12C renal)?
**A.** 42 µM

**Q.** And the TGI (DU-145 prostate)?
**A.** 42.3 µM

**Q.** What about the TGI (SW-620 colon) of the same compound?
**A.** 55.4 µM

**Q.** And the TGI (MDA-N)?
**A.** 39.9 µM

**Q.** What about the TGI (SF-268 CNS) of the same compound?
**A.** 37.6 µM

**Q.** And the TGI (PC-3 prostate)?
**A.** 29.1 µM

**Q.** And the TGI (MOLT-4 leukemia)?
**A.** 45.8 µM

**Q.** And the TGI (SK-MEL-5 melanoma)?
**A.** 36.3 µM

**Q.** What about the TGI (CCRF-CEM leukemia) of the same compound?
**A.** 18.3 µM

**Q.** And the TGI (CAKI-1 renal)?
**A.** 36.6 µM

**Q.** And the TGI (RXF 393 renal)?
**A.** 11.6 µM

**Q.** What about the TGI (HCC-2998 colon) of the same compound?
**A.** 30.8 µM

**Q.** And the TGI (OVCAR-8 ovarian)?
**A.** 40.1 µM

**Q.** What about the TGI (BT-549 breast) of the same compound?
**A.** 35 µM

**Q.** And the TGI (MALME-3M melanoma)?
**A.** 37.5 µM

**Q.** And the TGI (SNB-19 CNS)?
**A.** 32.3 µM

**Q.** And the TGI (NCI-H226 lung)?
**A.** 49.6 µM

**Q.** And the TGI (T-47D breast)?
**A.** 46.8 µM

**Q.** And the TGI (HOP-92 NSCLC)?
**A.** 27.3 µM

**Q.** What about the TGI (MCF7 breast) of the same compound?
**A.** 1.91 µM

**Q.** What about the TGI (U251 CNS) of the same compound?
**A.** 50.3 µM

**Q.** What about the TGI (SK-MEL-28 melanoma) of the same compound?
**A.** 39.8 µM

**Q.** And the TGI (UACC-257 melanoma)?
**A.** 41.2 µM

**Q.** And the TGI (SF-539 CNS)?
**A.** 32.8 µM

**Q.** What about the TGI (TK-10 renal) of the same compound?
**A.** 40.8 µM

**Q.** And the TGI (OVCAR-5 ovarian)?
**A.** 38.4 µM

**Q.** What about the TGI (SNB-75 CNS) of the same compound?
**A.** 30.7 µM

**Q.** And the TGI (HOP-62 NSCLC)?
**A.** > 100 µM

**Q.** What about the TGI (SK-OV-3 ovarian) of the same compound?
**A.** 33.5 µM

**Q.** What about the TGI (MDA-MB-231 breast) of the same compound?
**A.** 35.4 µM

**Q.** And the TGI (A498 renal)?
**A.** 31.1 µM

**Q.** What about the TGI (K-562 leukemia) of the same compound?
**A.** 44.7 µM

**Q.** What about the TGI (IGROV1 ovarian) of the same compound?
**A.** 32.9 µM

**Q.** And the TGI (HT29 colon)?
**A.** 44.7 µM

**Q.** What about the TGI (ACHN renal) of the same compound?
**A.** 37.5 µM

**Q.** And the TGI (NCI-H522 lung)?
**A.** 28.8 µM

**Q.** What about the TGI (COLO 205 colon) of the same compound?
**A.** 44.4 µM

**Q.** And the TGI (HCT-116 colon)?
**A.** > 100 µM

**Q.** And the TGI (NCI/ADR-RES ovarian)?
**A.** 43.4 µM

**Q.** What about the TGI (786-0 renal) of the same compound?
**A.** > 100 µM

**Q.** And the TGI (OVCAR-4 ovarian)?
**A.** 30.5 µM

**Q.** What about the TGI (SR leukemia) of the same compound?
**A.** 9.74 µM

**Q.** What about the TGI (SK-MEL-2 melanoma) of the same compound?
**A.** 33.3 µM

**Q.** What about the TGI (OVCAR-3 ovarian) of the same compound?
**A.** 81.9 µM

**Q.** What about the TGI (UACC-62 melanoma) of the same compound?
**A.** 26.1 µM

**Q.** What about the TGI (NCI-H23 lung) of the same compound?
**A.** 33.1 µM

**Q.** What about the TGI (NCI-H460 lung) of the same compound?
**A.** 43 µM

**Q.** And the TGI (SF-295 CNS)?
**A.** 32 µM

**Q.** And the TGI (LOX IMVI melanoma)?
**A.** 53.5 µM

**Q.** What about the TGI (KM12 colon) of the same compound?
**A.** 21.7 µM

**Q.** What about the TGI (A549 NSCLC) of the same compound?
**A.** 38.2 µM

**Q.** And the TGI (UO-31 renal)?
**A.** 13.1 µM

**Q.** What about the TGI (HCT-15 colon) of the same compound?
**A.** 42.1 µM

**Q.** And the TGI (EKVX NSCLC)?
**A.** 40 µM

**Q.** And the TGI (HS 578T breast)?
**A.** 31.8 µM
